A word on the MIC: it is the least concentration at which growth counts as inhibited.

The values below come from patent publication US4206120A, “Oxaazabicycloheptane antibiotics” (Beecham Group Limited, priority 1976, dated 1980).

One data set has as its system mice. Description: Acute toxicity in mice, subcutaneous. It counts as in vivo.
Data set [1] concerns the target T1, Lactamase, Staph. aureus Russell (Staphylococcus aureus, UniProt P00807).
T1 construct: Source of; endogenous in cells; host or cells: Staphylococcus aureus strain Russell
Description: Lactamase inhibition, enzyme from Staph. aureus Russell. The class given is biochemical. To be noted: source of enzyme Staph. aureus Russell; read-out: Lactamase inhibition I50 (converted).

Data set [2] deals with Lactamase, Kleb. aerogenes E70. Description: Lactamase inhibition, enzyme from Kleb. aerogenes E70. To be noted: source of enzyme Kleb. aerogenes E70. It counts as biochemical.
Data set [3] has as its target Lactamase, Proteus mirabilis C889. Description: Lactamase inhibition, enzyme from Proteus mirabilis C889. To be noted: source of enzyme Proteus mirabilis C889. It counts as biochemical.
The next data set deals with T2, Lactamase, E. coli JT 4 (Escherichia coli, UniProt P62593).
T2 construct: Source of; endogenous in cells; host or cells: Escherichia coli strain JT 4
Description: Lactamase inhibition, enzyme from E. coli JT 4. Conditions: source of enzyme E. coli JT 4; read-out: Lactamase inhibition I50 (converted). It counts as biochemical.

The target of data set [4] is T3, Lactamase, Pseudomonas aerogenosa Dalgleish (Pseudomonas aeruginosa, UniProt P16897).
T3 construct: Source of; endogenous in cells; host or cells: Pseudomonas aeruginosa strain Dalgleish
Description: Lactamase inhibition, enzyme from Pseudomonas aerogenosa Dalgleish. The class given is biochemical. To be noted: source of enzyme Pseudomonas aerogenosa Dalgleish; read-out: Lactamase inhibition I50 (converted).

For data set [5], the target named is T4, Lactamase, Enterobacter P99 (Enterobacter cloacae, UniProt P05364).
T4 construct: Source of; endogenous in cells; host or cells: Enterobacter (cloacae) strain P99
Description: Lactamase inhibition, enzyme from Enterobacter P99. It counts as biochemical. To be noted: source of enzyme Enterobacter P99; read-out: Lactamase inhibition I50 (converted).

For another data set, the system named is Klebsiella aerogenes E70. Description: Effect on MIC of ampicillin against β-lactamase producing bacteria, Klebsiella E 70. Conditions: ampicillin alone. It counts as cell-based. Here is the method: (§1) a. Compounds of this invention were tested by conventional methods to determine their effect on the MIC (minimum inhibitory concentration) values of ampicillin against certain β-lactamase producing bacteria. The results for the compounds of the formula [drawing 124] were as follows: […]

The subject of data set [6] is Staphylococcus aureus Russell. Description: Effect on MIC of ampicillin against β-lactamase producing bacteria, Staphylococcus aureus Russell. The class given is cell-based. Conditions: ampicillin alone, Staph. aureus Russell. Here is the method: as §1

T4 sequence (P05364 21-381): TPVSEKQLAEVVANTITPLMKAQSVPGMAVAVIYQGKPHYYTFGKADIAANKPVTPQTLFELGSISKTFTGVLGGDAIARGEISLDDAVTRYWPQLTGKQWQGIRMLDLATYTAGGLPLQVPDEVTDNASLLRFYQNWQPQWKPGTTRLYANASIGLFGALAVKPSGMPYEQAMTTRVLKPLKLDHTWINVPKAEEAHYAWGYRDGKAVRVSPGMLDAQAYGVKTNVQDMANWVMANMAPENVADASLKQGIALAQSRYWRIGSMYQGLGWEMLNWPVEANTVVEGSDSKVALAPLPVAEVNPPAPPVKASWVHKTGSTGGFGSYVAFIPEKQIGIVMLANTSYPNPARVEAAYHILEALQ
T2 sequence (P62593 24-286 limits assumed): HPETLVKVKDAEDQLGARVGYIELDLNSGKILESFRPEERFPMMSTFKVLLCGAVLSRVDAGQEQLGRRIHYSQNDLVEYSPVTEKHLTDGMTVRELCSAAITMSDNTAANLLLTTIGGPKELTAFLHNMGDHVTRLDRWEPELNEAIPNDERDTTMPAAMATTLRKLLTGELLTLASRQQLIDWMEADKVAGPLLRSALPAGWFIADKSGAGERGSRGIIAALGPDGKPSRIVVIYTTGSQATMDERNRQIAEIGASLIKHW
T1 sequence (P00807 25-281): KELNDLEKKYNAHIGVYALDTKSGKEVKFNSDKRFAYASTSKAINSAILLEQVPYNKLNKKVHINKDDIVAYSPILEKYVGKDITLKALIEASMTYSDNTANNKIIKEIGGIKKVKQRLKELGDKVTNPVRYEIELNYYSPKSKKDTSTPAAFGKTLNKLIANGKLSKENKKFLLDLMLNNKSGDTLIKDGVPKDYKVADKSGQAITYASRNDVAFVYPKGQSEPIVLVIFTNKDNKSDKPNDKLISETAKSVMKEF
T3 sequence (P16897 18-288): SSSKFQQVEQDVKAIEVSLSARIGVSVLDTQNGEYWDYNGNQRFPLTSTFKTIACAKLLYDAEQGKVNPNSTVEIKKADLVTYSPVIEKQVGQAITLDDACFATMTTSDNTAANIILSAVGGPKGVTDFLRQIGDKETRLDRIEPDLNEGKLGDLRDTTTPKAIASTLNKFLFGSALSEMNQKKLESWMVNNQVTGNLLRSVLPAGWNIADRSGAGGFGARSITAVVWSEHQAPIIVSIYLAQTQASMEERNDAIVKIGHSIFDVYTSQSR

For the molecule `O=C(O)[C@H]1/C(=C/c2ccccc2)O[C@@H]2CC(=O)N21` (relative stereo) [Z1=CO2 Na, Z2=H, Z3=C6 H5, Sodium (Z)-(2RS,5RS)-(3-benzylidene)-7-oxo-4-oxa-1-azabicyclo[3,2,0]-heptane-2-carboxylate], the “deaths in a group of mice” value in the data set on mice (subcutaneously at 1000 mg/kg) is “did not cause any deaths”.
Regarding `C[C@@H](NC(=O)/C=C1\CN2C(=O)C[C@H]2O1)c1ccccc1` [Example 5-R-epimer, (E)-5-R-3-[N-(R-1-Phenylethyl)carbamoylmethylene]-4-oxa-1-azabicyclo [3.2.0]heptan-7-one], the IC50 in [1] is 0.918 µM; at Lactamase, E. coli JT 4, 1.47 µM; in data set [4], 2.39 µM; in [5], 1.47 µM. In addition, the “Lactamase inhibition I50” value in data set [2] is 2.4 µg/mL; in [3], 0.6 µg/mL.
On to `C[C@@H](NC(=O)/C=C1\CN2C(=O)C[C@@H]2O1)c1ccccc1` [Example 5-S-epimer, (E)-5-S-[N-(R-1-Phenylethyl)carbamoylmethylene]-4-oxa-1-azabicyclo[3.2.0]heptan-7-one], for which the IC50 is 47.7 µM in data set [1]; 21.3 µM on Lactamase, E. coli JT 4; 64.6 µM in [4]; 4.41 µM in data set [5]. In addition, the figures for the “Lactamase inhibition I50” value in [2] and in data set [3] were > 40 µg/mL and 8.8 µg/mL, respectively.
Take `O=C(O)/C(=C1\CN2C(=O)CC2O1)c1ccccc1` (stereo not shown) [Z1=H, Z2=CO2 Na, Z3=C6 H5, Sodium (E)-7-oxo-4-oxa-1-azabicyclo[3.2.0]heptane-3-(benzylidene-1-carboxylate)]: the “deaths in a group of mice” value with mice (subcutaneously at 250 mg/kg) is given as “did not cause any deaths”.
On to `CC1(C)S[C@@H]2[C@H](NC(=O)[C@H](N)c3ccccc3)C(=O)N2[C@H]1C(=O)O` [ampicillin], for which the MIC is > 2000 µg/mL in the data set with Klebsiella aerogenes E70 and 250 µg/mL in data set [6].
